Holding throughout (test): Serum MIC, broth micro-dilution
What all share (assay type): cell-based
In general terms: In broth dilution the organism is exposed to a series of concentrations in liquid medium.

For experiment [1], the system named is Acinetobacter baumannii ATCC 17978. The conditions noted are these: Acinetobacter baumannii. As to the method:
(§1) In vitro antimicrobial activity of each compound was determined by measuring minimal inhibitor concentrations (MICs) using the broth micro-dilution technique as approved by the Clinical and Laboratory Standards Institute (CLSI) (Methods for Dilution Antimicrobial Susceptibility Tests for Bacteria that Grow Aerobically; Approved Standard—Eighth Edition. CLSI document M07-A8. Wayne, Pa.: Clinical and Laboratory Standards; 2009). Antibacterial activity was measure against Escherichia coli strain ATCC 25922 (E. coli), Klebsiella pneumoniae ATCC 700603 (K. pneumoniae), Acinetobacter baumannii ATCC 17978 (A. baumannii), and Pseudomonas aeruginosa PA01 (P. aeruginosa), each of which is representative of a clinically relevant Gram-negative species. Cells were inoculated onto plates of Mueller Hinton Agar and grown at 37° C. for 16-18 hours. Inocula suspensions were prepared by scraping cells into 1 mL of testing media (Mueller Hinton II cation adjusted Broth) and diluting to a final OD 600 nm of 0.01.
(§2) Test compounds were prepared in DMSO at a concentration of […]. The compounds were tested under several different dilution formats. In protocol 1, the compound stocks were diluted into testing media at a concentration of 64 μg/ml and serial 2-fold dilutions were made in the same media, in 96-well U bottom microtiter dishes, for a total of 10 compound concentrations. In protocol 2, the compound stocks were diluted into testing media at a concentration of 4 μg/mL and serial 2-fold dilutions were made in the same media, in 96-well U bottom microtiter dishes, for a total of 10 compound concentrations. In protocol 3, compound stocks were diluted into testing media at a concentration of 0.5 μg/mL, with serial 2-fold dilutions conducted as described above. In protocol 4, compound stocks were diluted into testing media at a concentration of 0.13 μg/mL, with serial 2-fold dilutions conducted as described above. Inocula suspensions were added to the 2-fold serial dilutions of test compounds to a final density of OD 600 nm of 0.0005 and incubated at 35° C. for 22 hours. […] To assess antimicrobial activity in the presence of plasma proteins, MICs were also determined in growth media supplemented with 50% serum. Bacterial inocula and test compound dilution plates were prepared using the same protocol as described above for the standard MICs assay, with the exception that a mixture of 50% v/v Mueller Hinton II cation adjusted Broth and 50% v/v mouse sterile filtered serum (Equitech-Bio) was used in place of 100% Mueller Hinton II cation adjusted Broth. The results are listed in Table 3 (MIC, IC50 values micromolar).

The subject of experiment [2] is Pseudomonas aeruginosa PA01. The following applies: Pseudomonas aeruginosa, read-out: P. aeruginosa 01 Serum MIC. The method, then:
as §1, §2

Experiment [3] concerns Escherichia coli strain ATCC 25922. The following applies: Escherichia coli, read-out: E. coli 25922 Serum MIC. As to the method: as §1, §2
Experiment [4] deals with Klebsiella pneumoniae ATCC 700603. The following applies: Klebsiella pneumoniae. As to the method:
as §1, §2

Where [5] appears, read: ATCC17978, 50% v/v mouse serum in Mueller Hinton II cation adjusted Broth, 35° C., 22 hours, Table 4, read-out: A. baumanii 17978 Serum MIC.
Where [6] appears, read: ATCC17978, 50% v/v mouse serum in Mueller Hinton II cation adjusted Broth, 35° C., 22 hours, Table 5, read-out: Acinetobacter baumanii 17978 Serum MIC.
[7] abbreviates: PA01, 50% v/v mouse serum in Mueller Hinton II cation adjusted Broth, 35° C., 22 hours, Table 4.
The mark [8] stands for this setting: ATCC25922, 50% v/v mouse serum in Mueller Hinton II cation adjusted Broth, 35° C., 22 hours, Table 4.
[9] abbreviates: ATCC700603, 50% v/v mouse serum in Mueller Hinton II cation adjusted Broth, 35° C., 22 hours, Table 4, read-out: K pneumoniae 700603 Serum MIC.

Structures are written as SMILES. Values after ≈ are worked out from the molar mass of the structure shown. Read-outs that look alike come from different tables or passages of the source.

The term MIC denotes the least concentration at which growth counts as inhibited. Take `Cc1nc(-c2ccc(C3(C)CC3)cc2)ncc1C(=O)N[C@@H](CNS(N)(=O)=O)C(=O)N(C)[C@@H]1C(=O)N[C@@H](C)C(=O)N[C@H](C(=O)O)Cc2ccc(OC[C@H](O)CN)c(c2)-c2cc1cc(OC[C@H](O)CN)c2O` [Example 5, (8S,11S,14S)-18-hydroxy-11-methyl-14-[methyl-[(2S)-2-[[4-methyl-2-[4-(1-methylcyclopropyl)-phenyl]pyrimidine-5-carbonyl]amino]-3-(sulfamoylamino)-propanoyl]amino]-10,13-dioxo-3,17-bis[(2R)-3-amino-2-hydroxy-propoxy]-9,12-diazatricyclo-[13.3.1.12,6]icosa-1(18),2(20),3,5,15(19), 16-hexaene-8-carboxylic acid]: the MIC amounted to 12 µM (≈ 11.9 µg/mL) in experiment [1] (setting [5]); 12 µM (≈ 11.9 µg/mL) in experiment [1] (setting [6]); 20 µM (≈ 19.8 µg/mL) in experiment [2] (setting [7]); 0.63 µM (≈ 0.624 µg/mL) in experiment [3] (setting [8]); 0.88 µM (≈ 0.872 µg/mL) in experiment [4] (setting [9]).

On to `Cc1nc(-c2cc3c(cc2O)C(C)(C)CC3)nc(N)c1C(=O)N[C@@H](CNS(N)(=O)=O)C(=O)N(C)[C@@H]1C(=O)N[C@@H](C)C(=O)N[C@H](C(=O)O)Cc2ccc(OC[C@H](O)CN)c(c2)-c2cc1cc(OC[C@H](O)CN)c2O` [Example 57, (8S,11S,14S)-18-hydroxy-11-methyl-14-[methyl-[(2S)-2-[[4-amino-2-(6-hydroxy-1,1-dimethyl-indan-5-yl)-6-methyl-pyrimidine-5-carbonyl]amino]-3-(sulfamoylamino)-propanoyl]amino]-10,13-dioxo-3,17-bis[(2R)-3-amino-2-hydroxy-propoxy]-9,12-diazatricyclo-[13.3.1.12,6]icosa-1(18),2(20),3,5,15(19), 16-hexaene-8-carboxylic acid], for which the MIC in experiment [1] (setting [5]) was 16 µM (≈ 16.6 µg/mL); in experiment [1] (setting [6]), 16 µM (≈ 16.6 µg/mL); in experiment [2] (setting [7]) it was 8 µM (≈ 8.29 µg/mL); in experiment [3] (setting [8]), 0.75 µM (≈ 0.777 µg/mL); in experiment [4] (setting [9]), 1 µM (≈ 1.04 µg/mL).

On to `Cc1nc(-c2ccc(C(C)(C)C)cc2)cc(CN)c1C(=O)N[C@@H](CNS(N)(=O)=O)C(=O)N(C)[C@@H]1C(=O)N[C@@H](C)C(=O)N[C@H](C(=O)O)Cc2ccc(OC[C@H](O)CN)c(c2)-c2cc1cc(OC[C@H](O)CN)c2O` [Example 63, (8S,11S,14S)-3,17-bis[(2R)-3-amino-2-hydroxy-propoxy]-14-[[(2S)-2-[[4-(amino-methyl)-6-(4-tert-butylphenyl)-2-methyl-pyridine-3-carbonyl]amino]-3-(sulfamoylamino)-propanoyl]-methyl-amino]-18-hydroxy-11-methyl-10,13-dioxo-9,12-diazatri-cyclo[13.3.1.12,6]icosa-1(18),2(20),3,5,15(19), 16-hexaene-8-carboxylic acid], for which the MIC was determined as 16 µM (≈ 16.3 µg/mL) in experiment [1] (setting [5]); 16 µM (≈ 16.3 µg/mL) in experiment [1] (setting [6]); 16 µM (≈ 16.3 µg/mL) in experiment [2] (setting [7]); 1 µM (≈ 1.02 µg/mL) in experiment [3] (setting [8]); 0.5 µM (≈ 0.511 µg/mL) in experiment [4] (setting [9]).

`C[C@@H]1NC(=O)[C@@H](N(C)C(=O)[C@H](CCN)NC(=O)c2cnn(-c3ccc(C4(C)CC4)cc3)c(=O)c2)c2cc(OC[C@H](O)CN)c(O)c(c2)-c2cc(ccc2OC[C@H](O)CN)C[C@@H](C(=O)O)NC1=O` [Example 29, (8S,11S,14S)-18-hydroxy-11-methyl-14-[methyl-[(2S)-4-amino-2-[[1-[4-(1-methylcyclopropyl)-phenyl]-6-oxo-pyridazine-4-carbonyl]amino]-butanoyl]amino]-10,13-dioxo-3,17-bis[(2R)-3-amino-2-hydroxy-propoxy]-9,12-diazatricyclo-[13.3.1.12,6]icosa-1(18),2(20),3,5,15(19), 16-hexaene-8-carboxylic acid]: the MIC in experiment [1] (setting [5]) worked out at 32 µM (≈ 29.7 µg/mL); in experiment [1] (setting [6]) it was 32 µM (≈ 29.7 µg/mL); in experiment [2] (setting [7]), 64 µM (≈ 59.4 µg/mL); in experiment [3] (setting [8]), 2.7 µM (≈ 2.51 µg/mL); in experiment [4] (setting [9]), 1.8 µM (≈ 1.67 µg/mL).

As to `Cc1nc(-c2c(O)cc3c(c2O)CCC3(C)C)nc(N)c1C(=O)N[C@@H](CNS(N)(=O)=O)C(=O)N(C)[C@@H]1C(=O)N[C@@H](C)C(=O)N[C@H](C(=O)O)Cc2ccc(OC[C@H](O)CN)c(c2)-c2cc1cc(OC[C@H](O)CN)c2O` [Example 52, (8S,11S,14S)-18-hydroxy-11-methyl-14-[methyl-[(2S)-2-[[4-amino-2-(4,6-dihydroxy-1,1-dimethyl-indan-5-yl)-6-methyl-pyrimidine-5-carbonyl]amino]-3-(sulfamoylamino)-propanoyl]amino]-10,13-dioxo-3,17-bis[(2R)-3-amino-2-hydroxy-propoxy]-9,12-diazatricyclo-[13.3.1.12,6]icosa-1(18),2(20),3,5,15(19), 16-hexaene-8-carboxylic acid], the MIC in experiment [1] (setting [5]) was 16 µM (≈ 16.8 µg/mL); in experiment [1] (setting [6]) it was 16 µM (≈ 16.8 µg/mL); in experiment [2] (setting [7]) it was 8 µM (≈ 8.42 µg/mL); in experiment [3] (setting [8]), 0.5 µM (≈ 0.526 µg/mL); in experiment [4] (setting [9]), 1 µM (≈ 1.05 µg/mL).

`Cc1nc(N2CCC(C(C)(C)C)CC2)nc(N)c1C(=O)N[C@@H](CCN)C(=O)N(C)[C@@H]1C(=O)N[C@@H](C)C(=O)N[C@H](C(=O)O)Cc2ccc(OC[C@H](O)CN)c(c2)-c2cc1cc(OC[C@H](O)CN)c2O` [Example 25, (8S,11S,14S)-18-hydroxy-11-methyl-14-[methyl-[(2S)-4-amino-2-[[4-amino-2-(4-tert-butyl-1-piperidyl)-6-methyl-pyrimidine-5-carbonyl]amino]-butanoyl]amino]-10,13-dioxo-3,17-bis[(2R)-3-amino-2-hydroxy-propoxy]-9,12-diazatricyclo-[13.3.1.12,6]icosa-1(18),2(20),3,5,15(19), 16-hexaene-8-carboxylic acid]: the MIC in experiment [1] (setting [5]) was 16 µM (≈ 15.2 µg/mL); in experiment [1] (setting [6]), 16 µM (≈ 15.2 µg/mL); in experiment [2] (setting [7]) it was 64 µM (≈ 60.8 µg/mL); in experiment [3] (setting [8]), 1 µM (≈ 0.95 µg/mL); in experiment [4] (setting [9]), 0.5 µM (≈ 0.475 µg/mL).

Consider `Cc1nc(-c2ccc(C(C)(C)C)cc2)nc(C)c1C(=O)N[C@@H](CCN)C(=O)N(C)[C@@H]1C(=O)N[C@@H](C)C(=O)N[C@H](C(=O)O)Cc2cc(OCCN)c(O)c(c2)-c2cc1ccc2O` (racemic) [Example 561-15], for which the MIC in experiment [1] (ATCC17978, 50% v/v mouse serum, compounds of Table 1, Table 7, read-out: A. baumanii 17978 Serum MIC) came to 64 µM (≈ 53.7 µg/mL); in experiment [2] (PA01, 50% v/v mouse serum, compounds of Table 1, Table 7) it was 64 µM (≈ 53.7 µg/mL); in experiment [3] (ATCC25922, 50% v/v mouse serum, compounds of Table 1, Table 7), 2 µM (≈ 1.68 µg/mL); in experiment [4] (ATCC700603, 50% v/v mouse serum, compounds of Table 1, Table 7, read-out: K. pneumoniae 700603 Serum MIC), 4 µM (≈ 3.36 µg/mL).

Turning to `C[C@@H]1NC(=O)[C@@H](N(C)C(=O)[C@H](CNS(N)(=O)=O)NC(=O)c2cnn(-c3ccc(C(C)(C)C)cc3)c(=O)c2)c2cc(OC[C@H](O)CN)c(O)c(c2)-c2cc(ccc2OC[C@H](O)CN)C[C@@H](C(=O)O)NC1=O` [Example 1, (8S,11S,14S)-18-hydroxy-11-methyl-14-[methyl-[(2S)-2-[[1-(4-tert-butylphenyl)-6-oxo-pyridazine-4-carbonyl]amino]-3-(sulfamoylamino)-propanoyl]amino]-10,13-dioxo-3,17-bis[(2R)-3-amino-2-hydroxy-propoxy]-9,12-diazatricyclo-[13.3.1.12,6]icosa-1(18),2(20),3,5,15(19), 16-hexaene-8-carboxylic acid], the minimal inhibitory concentration (MIC) in experiment [1] (ATCC17978, 22 h, read-out: A. baumanii 17978 Serum MIC) came to 24 µM (≈ 23.9 µg/mL); in experiment [1] (ATCC17978, 22 h, read-out: Acinetobacter baumanii 17978 Serum MIC), 24 µM (≈ 23.9 µg/mL); in experiment [2] (PA01, 22 h) it was 16 µM (≈ 15.9 µg/mL); in experiment [3] (ATCC25922, 22 h) it was 3 µM (≈ 2.99 µg/mL); in experiment [4] (ATCC700603, 22 h, read-out: K pneumoniae 700603 Serum MIC) it was 1.5 µM (≈ 1.49 µg/mL).

For the origin of these results see US11208387B2, “Macrocyclic broad spectrum antibiotics” (Genentech, Inc., priority 2019, dated 2021).
